What follows are compounds tested against FXR (Homo sapiens (Human), UniProt Q96RI1) (assay: FXR EC50 (FXR agonist potency reported with each Example)).
Format: cell-based

Chain of FXR (Q96RI1 262-486): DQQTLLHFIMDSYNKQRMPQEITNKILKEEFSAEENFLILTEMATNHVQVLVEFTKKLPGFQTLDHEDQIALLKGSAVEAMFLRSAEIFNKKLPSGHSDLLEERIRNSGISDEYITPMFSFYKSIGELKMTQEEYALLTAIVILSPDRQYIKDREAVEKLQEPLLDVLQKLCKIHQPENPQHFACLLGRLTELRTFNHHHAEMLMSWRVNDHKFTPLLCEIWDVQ

Compound	EC50
CC(F)(F)c1nc(C23CCC(CN(C(=O)C45CC(F)(C4)C5)c4cccc(-c5noc(C6(C)CC6)n5)c4)(CC2)CC3)no1 [Example 179, N-((4-(5-(1,1-difluoroethyl)-1,2,4-oxadiazol-3-yl)bicyclo[2.2.2]octan-1-yl)methyl)-3-fluoro-N-(3-(5-(1-methylcyclopropyl)-1,2,4-oxadiazol-3-yl)phenyl)bicyclo[1.1.1]pentane-1-carboxamide]	0.058 µM
CC1(c2nc(-c3cccc(N(CC45CCC(c6noc(C7(C)COC7)n6)(CC4)CC5)C(=O)C45CC(F)(C4)C5)c3)no2)CC1 [Example 180, 3-fluoro-N-(3-(5-(1-methylcyclopropyl)-1,2,4-oxadiazol-3-yl)phenyl)-N-((4-(5-(3-methyloxetan-3-yl)-1,2,4-oxadiazol-3-yl)bicyclo[2.2.2]octan-1-yl)methyl) bicyclo[1.1.1]pentane-1-carboxamide]	0.083 µM
CC(C)(C)c1nc(-c2cccc(N(CC34CCC(c5cnc(C(F)(F)F)nc5)(CC3)OC4)C(=O)C34CC(F)(C3)C4)c2)no1 [Example 181, N-(3-(5-(tert-butyl)-1,2,4-oxadiazol-3-yl)phenyl)-3-fluoro-N-((1-(2-(trifluoromethyl)pyrimidin-5-yl)-2-oxabicyclo[2.2.2]octan-4-yl)methyl)bicyclo[1.1.1]pentane-1-carboxamide]	0.828 µM
O=C(N(CC12CCC(c3cnc(C(F)(F)F)nc3)(CC1)OC2)c1cccc(-c2noc(C(F)F)n2)c1)C12CC(F)(C1)C2 [Example 182, N-(3-(5-(difluoromethyl)-1,2,4-oxadiazol-3-yl)phenyl)-3-fluoro-N-((1-(2-(trifluoromethyl)pyrimidin-5-yl)-2-oxabicyclo[2.2.2]octan-4-yl)methyl) bicyclo[1.1.1]pentane-1-carboxamide]	2 µM
CC(C)(C)c1nc(-c2cccc(N(CC34CCC(c5noc(C(C)(C)C)n5)(CC3)CC4)C(=O)C34CC(F)(C3)C4)c2)no1 [Example 183, N-((4-(5-(tert-butyl)-1,2,4-oxadiazol-3-yl)bicyclo[2.2.2]octan-1-yl)methyl)-N-(3-(5-(tert-butyl)-1,2,4-oxadiazol-3-yl)phenyl)-3-fluorobicyclo[1.1.1]pentane-1-carboxamide]	0.018 µM
O=C(N(CC12CCC(c3noc(C(F)F)n3)(CC1)CC2)c1cccc(-c2noc(C(F)F)n2)c1)C12CC(F)(C1)C2 [Example 184, N-((4-(5-(difluoromethyl)-1,2,4-oxadiazol-3-yl)bicyclo[2.2.2]octan-1-yl)methyl)-N-(3-(5-(difluoromethyl)-1,2,4-oxadiazol-3-yl)phenyl)-3-fluorobicyclo[1.1.1]pentane-1-carboxamide]	0.058 µM
O=C(N(CC12CCC(c3ccc(C(F)(F)F)cn3)(CC1)CC2)c1cccc(-c2noc(C3CC3)n2)c1)C12CC(F)(C1)C2 [Example 185, N-(3-(5-cyclopropyl-1,2,4-oxadiazol-3-yl)phenyl)-3-fluoro-N-((4-(5-(trifluoromethyl)pyridin-2-yl)bicyclo[2.2.2]octan-1-yl)methyl)bicyclo[1.1.1]pentane-1-carboxamide]	0.508 µM
CC1(c2nc(-c3cccc(N(CC45CCC(c6ccc(C(F)(F)F)cn6)(CC4)CC5)C(=O)C45CC(F)(C4)C5)c3)no2)CC1 [Example 186, 3-fluoro-N-(3-(5-(1-methylcyclopropyl)-1,2,4-oxadiazol-3-yl)phenyl)-N-((4-(5-(trifluoromethyl)pyridin-2-yl)bicyclo[2.2.2]octan-1-yl)methyl)bicyclo[1.1.1]pentane-1-carboxamide]	0.625 µM
CC(C)c1nc(-c2cccc(N(CC34CCC(c5ccc(C(F)(F)F)cn5)(CC3)CC4)C(=O)C34CC(F)(C3)C4)c2)no1 [Example 187, 3-fluoro-N-(3-(5-isopropyl-1,2,4-oxadiazol-3-yl)phenyl)-N-((4-(5-(trifluoromethyl)pyridin-2-yl)bicyclo[2.2.2]octan-1-yl)methyl)bicyclo[1.1.1]pentane-1-carboxamide]	0.605 µM
CC(C)(C)c1nc(-c2cccc(N(CC34CCC(c5ccc(C(F)(F)F)cn5)(CC3)CC4)C(=O)C34CC(F)(C3)C4)c2)no1 [Example 188, N-(3-(5-(tert-butyl)-1,2,4-oxadiazol-3-yl)phenyl)-3-fluoro-N-((4-(5-(trifluoromethyl)pyridin-2-yl)bicyclo[2.2.2]octan-1-yl)methyl)bicyclo[1.1.1]pentane-1-carboxamide]	0.304 µM
O=C(N(CC12CCC(c3ccc(C(F)(F)F)cn3)(CC1)CC2)c1cccc(-c2noc(C(F)F)n2)c1)C12CC(F)(C1)C2 [Example 189, N-(3-(5-(difluoromethyl)-1,2,4-oxadiazol-3-yl)phenyl)-3-fluoro-N-((4-(5-(trifluoromethyl)pyridin-2-yl)bicyclo[2.2.2]octan-1-yl)methyl)bicyclo[1.1.1]pentane-1-carboxamide]	0.691 µM
CC(F)(F)c1nc(-c2cccc(N(CC34CCC(c5ccc(C(F)(F)F)cn5)(CC3)CC4)C(=O)C34CC(F)(C3)C4)c2)no1 [Example 190, N-(3-(5-(1,1-difluoroethyl)-1,2,4-oxadiazol-3-yl)phenyl)-3-fluoro-N-((4-(5-(trifluoromethyl)pyridin-2-yl)bicyclo[2.2.2]octan-1-yl)methyl)bicyclo[1.1.1]pentane-1-carboxamide]	0.281 µM
CC1(C(=O)N(CC23CCC(c4nc(C(C)(C)C)no4)(CC2)CC3)c2cccc(-c3nc(C4CC4)no3)c2)COC1 [Example 191, N-((4-(3-(tert-butyl)-1,2,4-oxadiazol-5-yl)bicyclo[2.2.2]octan-1-yl)methyl)-N-(3-(3-cyclopropyl-1,2,4-oxadiazol-5-yl)phenyl)-3-methyloxetane-3-carboxamide]	0.824 µM
CO[C@H]1C[C@@H](C(=O)N(CC23CCC(c4nc(C(C)(C)C)no4)(CC2)CC3)c2cccc(-c3nc(C4CC4)no3)c2)C1 [Example 192, (1S,3S)—N-((4-(3-(tert-butyl)-1,2,4-oxadiazol-5-yl)bicyclo[2.2.2]octan-1-yl)methyl)-N-(3-(3-cyclopropyl-1,2,4-oxadiazol-5-yl)phenyl)-3-methoxycyclobutane-1-carboxamide]	0.449 µM
CC(C)(C)c1noc(C23CCC(CN(C(=O)C4CN(C(=O)C(F)(F)F)C4)c4cccc(-c5nc(C6CC6)no5)c4)(CC2)CC3)n1 [Example 193, N-((4-(3-(tert-butyl)-1,2,4-oxadiazol-5-yl)bicyclo[2.2.2]octan-1-yl)methyl)-N-(3-(3-cyclopropyl-1,2,4-oxadiazol-5-yl)phenyl)-1-(2,2,2-trifluoroacetyl)azetidine-3-carboxamide]	4.87 µM
CC(C)(C)c1nc(C23CCC(CN(C(=O)C45CC(F)(C4)C5)c4cccc(-c5cnn(S(C)(=O)=O)c5)c4)(CC2)CC3)no1 [Example 194, N-((4-(5-(tert-butyl)-1,2,4-oxadiazol-3-yl)bicyclo[2.2.2]octan-1-yl)methyl)-3-fluoro-N-(3-(1-(methylsulfonyl)-1H-pyrazol-4-yl)phenyl)bicyclo[1.1.1]pentane-1-carboxamide]	0.016 µM
CC(C)(C)c1nc(C23CCC(CN(C(=O)C45CC(F)(C4)C5)c4cccc(-c5cnn(S(=O)(=O)C6CC6)c5)c4)(CC2)CC3)no1 [Example 195, N-((4-(5-(tert-butyl)-1,2,4-oxadiazol-3-yl)bicyclo[2.2.2]octan-1-yl)methyl)-N-(3-(1-(cyclopropylsulfonyl)-1H-pyrazol-4-yl)phenyl)-3-fluorobicyclo[1.1.1]pentane-1-carboxamide]	0.02 µM
O=C(N(CC12CCC(c3nc(C4CC4)no3)(CC1)OC2)c1cccc(-c2nc(C3CC3)no2)c1)C12CC(F)(C1)C2 [Example 196, N-((1-(3-cyclopropyl-1,2,4-oxadiazol-5-yl)-2-oxabicyclo[2.2.2]octan-4-yl)methyl)-N-(3-(3-cyclopropyl-1,2,4-oxadiazol-5-yl)phenyl)-3-fluorobicyclo[1.1.1]pentane-1-carboxamide]	0.205 µM
O=C(C1CC(F)(F)C1)N(CC12CCC(c3nc(C4CC4)no3)(CC1)OC2)c1cccc(-c2nc(C3CC3)no2)c1 [Example 197, N-((1-(3-cyclopropyl-1,2,4-oxadiazol-5-yl)-2-oxabicyclo[2.2.2]octan-4-yl)methyl)-N-(3-(3-cyclopropyl-1,2,4-oxadiazol-5-yl)phenyl)-3,3-difluorocyclobutane-1-carboxamide]	0.965 µM
O=C(C1CC(C(F)F)C1)N(CC12CCC(c3nc(C4CC4)no3)(CC1)OC2)c1cccc(-c2nc(C3CC3)no2)c1 (stereo not drawn) [Example 198, N-((1-(3-cyclopropyl-1,2,4-oxadiazol-5-yl)-2-oxabicyclo[2.2.2]octan-4-yl)methyl)-N-(3-(3-cyclopropyl-1,2,4-oxadiazol-5-yl)phenyl)-3-(difluoromethyl)cyclobutane-1-carboxamide]	0.909 µM
O=C(N(CC12CCC(c3nc(C4CC4)no3)(CC1)OC2)c1cccc(-c2cc(C3CC3)on2)c1)C12CC(F)(C1)C2 [Example 199, N-((1-(3-cyclopropyl-1,2,4-oxadiazol-5-yl)-2-oxabicyclo[2.2.2]octan-4-yl)methyl)-N-(3-(5-cyclopropylisoxazol-3-yl)phenyl)-3-fluorobicyclo[1.1.1]pentane-1-carboxamide]	0.281 µM
O=C(C1CC(F)(F)C1)N(CC12CCC(c3nc(C4CC4)no3)(CC1)OC2)c1cccc(-c2cc(C3CC3)on2)c1 [Example 200, N-((1-(3-cyclopropyl-1,2,4-oxadiazol-5-yl)-2-oxabicyclo[2.2.2]octan-4-yl)methyl)-N-(3-(5-cyclopropylisoxazol-3-yl)phenyl)-3,3-difluorocyclobutane-1-carboxamide]	0.526 µM
O=C(C1CC(C(F)F)C1)N(CC12CCC(c3nc(C4CC4)no3)(CC1)OC2)c1cccc(-c2cc(C3CC3)on2)c1 (stereo not drawn) [Example 201, N-((1-(3-cyclopropyl-1,2,4-oxadiazol-5-yl)-2-oxabicyclo[2.2.2]octan-4-yl)methyl)-N-(3-(5-cyclopropylisoxazol-3-yl)phenyl)-3-(difluoromethyl)cyclobutane-1-carboxamide]	0.384 µM
O=C(C1CCC(F)(F)C1)N(CC12CCC(c3nc(C4CC4)no3)(CC1)OC2)c1cccc(-c2cc(C3CC3)on2)c1 (stereo not drawn) [Example 202, N-((1-(3-cyclopropyl-1,2,4-oxadiazol-5-yl)-2-oxabicyclo[2.2.2]octan-4-yl)methyl)-N-(3-(5-cyclopropylisoxazol-3-yl)phenyl)-3,3-difluorocyclopentane-1-carboxamide]	0.299 µM

— patent US11254663B2 (BRISTOL-MYERS SQUIBB COMPANY, priority 2019, dated 2022)
